Reference: a melting point compilation (Tetko et al.; mined from patent text by program, amines drawn as free bases though some values may be those of a salt)

SMILES | melting point [°C]
Cc1cc(O)cc(C)c1[N+](=O)[O-] | 106 to 108
NC(=O)CN1CC[C@@H](O)C1=O | 195 to 196
CCOc1cc(-c2cc(C(F)(F)F)nc(-c3ccnc(-c4cccc(S(N)(=O)=O)c4)c3)n2)ccc1C(F)(F)F | 224
O=C(NCc1cccnc1)Nc1ccc([N+](=O)[O-])cc1 | 220 to 222
CCCOC(C)Cc1ccc(-c2ccc(O)cc2)cc1 (single isomer, unassigned; (-)) | 52 to 54
C=CCOC(=O)[C@@H]1CCC[C@@H]1C(N)=O (relative stereo) | 35
Cc1cc2c(Cl)nc(N)nc2o1 | 255 to 257
Cn1ncc2c1-c1c(Oc3ccc(N)cc3)sc(C(N)=O)c1CC2 | 214 to 216
N#CNc1nc2ccc(Cl)cc2[nH]1 | > 300
CCCCOc1c(CNC(=O)OC(C)(C)C)n(CC(C)C)c(=O)c2ccc(O)cc12 | 185 to 186
Cc1c(CCC2C(=O)OCCC2OC2CCCCO2)c2c(c(C)c1OCc1ccccc1)CCC(C)(C)O2 (stereo not given) | 95 to 95.5
COc1ccccc1N1CCN([C@@H]2Cc3cccc(O)c3C[C@H]2O)CC1 (relative stereo) | 199 to 201
N#Cc1cc(Cl)c(NC(=O)NC(=O)c2c(F)cccc2F)cc1Cl | 238 to 240
O=C(O)COc1ccc(C(=O)c2ccc(Cl)cc2)c(Cl)c1Cl | 196 to 198
CCOc1nc2c(cc1C)C(=O)c1ccccc1C2=O | 186 to 188
N#Cc1ccc(Oc2ccccc2)cn1 | 84 to 85
Cc1ccc(S(=O)(=O)OCCOc2ccc(Nc3ncc(C#N)c(-c4ccccc4)n3)cc2)cc1 | 147
Cc1cc(C)c(C#N)c(SSc2ccc([N+](=O)[O-])cc2C(Cl)(Cl)Cl)n1 | 132
CCCCCC(=O)N(C)Cc1cc(-c2ccc(C[C@H](OCC)C(=O)O)cc2)cs1 | 65
O=C(Nc1ccccc1)c1ccc2c(c1)N(C1CC1)CNS2(=O)=O | 232 to 234
CCOC(=O)CN1CCc2c(sc(N)c2C(=O)c2ccc(Cl)cc2)C1 | 105 to 106
CSCc1nc2c(N)nc3ccccc3c2n1Cc1ccccc1 | 217 to 219
CN(C)C(=O)C(C#N)=C(O)c1ccc(C(F)(F)F)cc1[N+](=O)[O-] | 104 to 106
Cc1cc(Br)ccc1-n1c(C(F)(F)F)nn(C)c1=O | 80 to 83
CCOCCN(C)c1ccc(-c2ccc3c(c2)C=C(C(=O)Nc2ccc(CN(C)C4CCOCC4)cc2)CCS3(=O)=O)cc1 | 190 to 192

SMILES | melting point [°C]
CCOC(=O)c1cc2cc(C)cc(NS(=O)(=O)c3cccs3)c2[nH]1 | 168 to 169
O=c1[nH]c2ccc(F)cc2c(=O)n1CCCN1CC=C(c2ccc(Cl)cc2)CC1 | 192 to 193
CCOC(=O)c1[nH]c2cc(Cl)cc(Cl)c2c1NCC(=O)c1ccccc1Cc1ccccc1 | 225 to 227
COc1ccc(-c2cc3ccc(C(=O)O)cc3s2)cc1C12CC3CC(CC(C3)C1)C2 | 305
CCCc1nc2c(N)nc3cc(-c4ccc(F)cc4CN)ccc3c2s1 | 181 to 184
CCOC(=O)CNc1c(C)cc(C(O)(C(F)(F)F)C(F)(F)F)cc1C | 91 to 93
CCCCCCCCCCCCCCCCOc1ccc(-c2nc(CC(=O)O)c(OCC)o2)cc1 | 89 to 91
O=C(NCc1ccc(Cl)cc1)c1cnc2ccc(CN3CCOCC3)cc2c1O | 219 to 220
CCN(CC)C(=O)c1ccc2ccccc2c1-c1ccc(C(F)(F)F)cc1 | 111 to 112
CCN(CC)CCNCc1ccc(C(=O)Nc2nc(-c3ccccc3)c(-c3ccc(=O)n(C(C)C)n3)s2)cc1 | 158 to 160
O=C1C=CC(=C(c2ccccc2)c2ccccc2)O1 | 110 to 112
COc1on(C)c(=O)c1-c1ccccc1COc1ccccc1C | 90 to 92
C=CS(=O)(=O)CCC(F)(F)C(F)(F)C(F)(F)C(F)(F)C(F)(F)C(F)(F)C(F)(F)C(F)(F)F | 96 to 97
OCC(O)Cc1cccc(Cc2ccccc2)c1OCc1ccccc1 (stereo not given) | 55 to 58
O=C(Nc1cccc(C(F)(F)F)c1)Nc1ccc(Oc2ncnc3cc[nH]c23)cc1Cl | 316 to 319
CCOC(=O)c1cn(C(C)(C)C)c2nc(N3CC[C@H](N)C3)c(F)cc2c1=O | 255
CN(C)c1ccc(-c2cnc3[nH]cc(C(=O)C4(C)CCCCC4)c3n2)cc1 | 272 to 274
COc1cc2cc(C(=O)O)sc(=O)c2cc1OC | 306 to 307
Clc1cccc(Oc2nccnc2Cl)c1 | 83 to 85
COc1nn(-c2cccc(NC(C)=O)c2)c(=O)n(Cc2ccc3c(c2)OC(F)(F)O3)c1=O | 184
CC(=O)Nc1nc(S(=O)(=O)Cl)n[nH]1 | 177
CCCCCNC(=O)[C@@H]1CCCN1C(=O)[C@H](C)NC(=O)CC | 105 to 108
COC(=O)CCC(=O)Nc1cccc(COc2ccc(C(C)=O)c(OC)c2)c1 | 124
Cc1c(OC(=O)c2ccccc2)ccc2c1OC(C)(C)CC2=O | 113
CCOC(=O)c1nc2n(c(=O)c1O)CCC=C2c1ccccc1 | 151
